Assay results taken from paper PMC8305717, “4-Phenethyl-1-Propargylpiperidine-Derived Dual Inhibitors of Butyrylcholinesterase and Monoamine Oxidase B” (Molecules, 2021).
Several values for one entry are separate records, joined by “and”; a condition that tells them apart may be missing. Equal entries are not always repeated. Entries after “also recorded” stand apart in the source; their conditions may differ.

The molecules below were run against T1, hBChE (Homo sapiens, UniProt P06276) (assay: hBChE time-dependency measurements (IC50 shift, varied pre-incubation time)). Settings: pre-incubation 1, 5, 15, 30 min.
T1 construct: gift from Xavier Brazzolotto, Florian Nachon and José Dias (IRBA, Brétigny-sur-Orge, France)
T1 sequence (P06276 29-602): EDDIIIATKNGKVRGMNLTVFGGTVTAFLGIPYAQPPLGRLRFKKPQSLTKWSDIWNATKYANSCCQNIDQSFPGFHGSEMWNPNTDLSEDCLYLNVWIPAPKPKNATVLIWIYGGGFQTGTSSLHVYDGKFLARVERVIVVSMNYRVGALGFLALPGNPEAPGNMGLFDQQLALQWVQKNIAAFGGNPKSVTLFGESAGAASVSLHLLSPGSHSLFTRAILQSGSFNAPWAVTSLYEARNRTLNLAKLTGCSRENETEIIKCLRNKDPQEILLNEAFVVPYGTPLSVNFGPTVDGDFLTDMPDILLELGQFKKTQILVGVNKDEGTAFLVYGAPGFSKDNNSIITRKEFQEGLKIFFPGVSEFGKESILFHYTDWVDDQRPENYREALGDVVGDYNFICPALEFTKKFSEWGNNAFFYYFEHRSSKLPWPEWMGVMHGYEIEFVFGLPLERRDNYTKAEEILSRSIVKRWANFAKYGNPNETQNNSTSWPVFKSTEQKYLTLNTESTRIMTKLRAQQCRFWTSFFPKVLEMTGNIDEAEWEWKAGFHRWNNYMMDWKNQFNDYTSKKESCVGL
Type: biochemical
Method: (§1) The inhibitory potencies of the compounds against the ChEs were determined using the Ellman method. 5,5′-Dithiobis (2-nitrobenzoic acid) (Ellman’s reagent; DTNB, St. Louis, MO, USA), butyrylthiocholine iodide, and acetylthiocholine iodides were from Sigma-Aldrich. Recombinant hAChE and hBChE at the stock concentration of 16.5 mg/mL and 14.5 mg/mL, respectively, were kindly donated by Xavier Brazzolotto, Florian Nachon, and José Dias (IRBA, Brétigny-sur-Orge, France). The enzyme solutions were prepared by dilution of the concentrated stocks in 0.1 M phosphate-buffered solution (pH 8.0). The reactions were carried out in a final volume of 300 µL of 0.1 M phosphate-buffered solution, pH 8.0, containing 370 µM DTNB, 500 μM butyrylthiocholine/acetylthiocholine, and approximately 1 nM or 50 pM hBChE or hAChE, respectively. The reactions were started by the addition of the substrate after 5-min pre-incubation at room temperature. For time-dependency measurements of hBChE inhibition, the pre-incubation time was varied (i.e., 1 min, 5 min, 15 min, 30 min). The final content of the organic solvent (DMSO) was always 1%. The formation of the yellow 5-thio-2-nitrobenzoate anion as a result of the reaction of DTNB with the thiocholines was monitored for 1 min as the change in absorbance at 412 nm, using a 96-well microplate reader (SynergyTM H4; BioTek Instruments, Inc., USA). The initial velocities in the presence (vi) and the absence (vo) of the test compounds were calculated. The inhibitory potencies were expressed as the residual activities, according to RA = (vi − b)/(vo − b), where b is the blank value using phosphate buffer without ChEs. […] The IC50 values were obtained by plotting the residual ChEs activities against the applied inhibitor concentrations, with the experimental data fitted to a four-parameter logistic function (GraphPad Prism 9.0; GraphPad Software Inc., San Diego, CA, USA).
Figure 7 The IC50 shift curves for compounds 13–15 during hBChE inhibition.

Structure (SMILES) | Time-dependence of hBChE inhibition (IC50 shift)
C#CCN1CCC(CCc2ccc(OC(=O)N(C)CC)cc2)CC1 [Compound 14, 4-(2-(1-(prop-2-yn-1-yl)piperidin-4-yl)ethyl)phenyl ethyl(methyl)carbamate] | IC50 shift was absent
C#CCN1CCC(CCc2cccc(OC(=O)N(C)CC)c2)CC1 [Compound 15, 3-(2-(1-(prop-2-yn-1-yl)piperidin-4-yl)ethyl)phenyl ethyl(methyl)carbamate] | time-dependent inhibition
C#CCN1CCC(CCc2cccc(OC(=O)Nc3ccccc3)c2)CC1 [Compound 13, 3-(2-(1-(prop-2-yn-1-yl)piperidin-4-yl)ethyl)phenyl phenylcarbamate] | IC50 shift was absent

The molecules below were run against T2, hMAO-B (Homo sapiens, UniProt P27338) (assay: HRP-Amplex Red coupled fluorimetric assay, hMAO-B). Settings: 15 min incubation at 37 °C; 3 independent experiments; read-out: IC50 ± SEM, hMAO-B.
T2 construct: purchased Sigma Aldrich; host or cells: BTI-TN-5B1-4 insect cells
T2 sequence (P27338 1-520): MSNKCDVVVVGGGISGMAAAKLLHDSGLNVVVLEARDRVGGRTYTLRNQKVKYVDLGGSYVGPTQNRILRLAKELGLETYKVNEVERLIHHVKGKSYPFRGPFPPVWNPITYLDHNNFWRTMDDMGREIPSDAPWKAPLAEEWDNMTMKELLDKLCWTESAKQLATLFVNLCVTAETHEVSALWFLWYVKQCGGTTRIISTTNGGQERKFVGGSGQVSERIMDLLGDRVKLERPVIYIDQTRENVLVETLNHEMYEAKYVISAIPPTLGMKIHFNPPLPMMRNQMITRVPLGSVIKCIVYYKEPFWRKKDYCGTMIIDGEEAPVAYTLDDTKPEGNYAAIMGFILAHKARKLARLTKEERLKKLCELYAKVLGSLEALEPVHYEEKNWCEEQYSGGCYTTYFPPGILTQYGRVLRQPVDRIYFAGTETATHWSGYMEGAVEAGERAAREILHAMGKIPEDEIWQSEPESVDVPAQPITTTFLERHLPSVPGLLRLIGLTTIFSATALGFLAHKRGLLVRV
Type: biochemical
Method: (§2) Inhibitory potencies against human (h)AChE and hBChE were determined using the Ellman method and inhibitory potencies against hMAO-A and hMAO-B were determined with horseradish peroxidase (HRP)-Amplex Red coupled assay.
(§3) The effects of the test compounds on hMAO were investigated using a fluorimetric assay. Recombinant hMAO, expressed in BTI-TN-5B1-4 insect cells, p-tyramine hydrochloride, and horse-radish peroxidase type II were purchased from Sigma Aldrich, whereas Amplex Red was synthesized as reported previously.
(§4) In brief, 100 µL 50 mM sodium phosphate buffer (pH 7.4, 0.05 vol.% Triton X-114) containing the compounds or the reference inhibitors and hMAO were incubated for 15 min at 37 °C. The reaction was started by adding Amplex Red (final concentration, 250 µM), horseradish peroxidase (final activity, 2 U/mL), and p-tyramine (final concentration, 1 mM). The fluorescence increase (λex = 530 nm, λem = 590 nm) at 37 °C was monitored for 20 min. DMSO was used for control experiments. To determine the blank value (b), phosphate-buffered solution replaced the enzyme. Each measurement was performed in duplicate. The inhibitory potencies were expressed as the residual activities (RA) and IC50 values as described in Section 3.2.1. For the reversibility assay, the previously described protocol was followed.

Structure (SMILES) | IC50
C#CCN1CCC(/C=C/c2ccc(O)cc2)CC1 [Compound 9, (E)-4-(2-(1-(prop-2-yn-1-yl)piperidin-4-yl)vinyl)phenol] | 12.9 ± 1.1 µM
C#CCN1CCC(CCc2ccc(OC(=O)N(C)CC)cc2)CC1 [Compound 14, 4-(2-(1-(prop-2-yn-1-yl)piperidin-4-yl)ethyl)phenyl ethyl(methyl)carbamate] | 0.181 ± 0.0287 µM
C#CCN1CCC(CCc2cccc(OC(=O)N(C)CC)c2)CC1 [Compound 15, 3-(2-(1-(prop-2-yn-1-yl)piperidin-4-yl)ethyl)phenyl ethyl(methyl)carbamate] | 4.3 µM and 8.5 µM
C#CCN1CCC(CCc2cccc(O)c2)CC1 [Compound 11, 3-(2-(1-(prop-2-yn-1-yl)piperidin-4-yl)ethyl)phenol] | 52.5 ± 14.8 µM
C#CCN1CCC(CCc2cccc(OC(=O)Nc3ccccc3)c2)CC1 [Compound 13, 3-(2-(1-(prop-2-yn-1-yl)piperidin-4-yl)ethyl)phenyl phenylcarbamate] | 23.6 ± 3 µM

These molecules were tested against T3, hMAO-A (Homo sapiens, UniProt P21397) (assay: HRP-Amplex Red coupled fluorimetric assay, hMAO-A). Settings: 0.25 h; residual activity at 100 µM compound; 15 min incubation at 37 °C; RA above 50% considered inactive; read-out: RA ± SD (%) at 100 µM, hMAO-A.
T3 construct: purchased Sigma Aldrich; host or cells: BTI-TN-5B1-4 insect cells
T3 sequence (P21397 1-527): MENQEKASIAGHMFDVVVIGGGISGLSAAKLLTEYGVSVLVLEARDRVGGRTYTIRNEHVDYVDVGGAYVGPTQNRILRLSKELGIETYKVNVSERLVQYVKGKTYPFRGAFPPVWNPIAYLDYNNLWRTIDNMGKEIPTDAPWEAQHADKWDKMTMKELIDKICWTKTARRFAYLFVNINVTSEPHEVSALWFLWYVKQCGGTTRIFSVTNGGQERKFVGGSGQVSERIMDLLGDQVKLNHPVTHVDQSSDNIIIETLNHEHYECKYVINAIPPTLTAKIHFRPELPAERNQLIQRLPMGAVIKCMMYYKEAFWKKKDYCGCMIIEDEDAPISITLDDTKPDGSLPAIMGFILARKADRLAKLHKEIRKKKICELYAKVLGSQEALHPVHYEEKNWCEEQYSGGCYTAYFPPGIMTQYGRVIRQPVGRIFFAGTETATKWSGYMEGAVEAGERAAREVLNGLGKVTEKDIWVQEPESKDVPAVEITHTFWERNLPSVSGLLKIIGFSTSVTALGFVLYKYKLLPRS
Type: biochemical
Method: as §2, §3, §4

Structure (SMILES) | remaining activity at 100 µM
C#CCN1CCC(CCc2ccc(OC(=O)N(C)CC)cc2)CC1 [Compound 14, 4-(2-(1-(prop-2-yn-1-yl)piperidin-4-yl)ethyl)phenyl ethyl(methyl)carbamate] | 51.2 ± 1.5%
C#CCN1CCC(CCc2cccc(OC(=O)N(C)CC)c2)CC1 [Compound 15, 3-(2-(1-(prop-2-yn-1-yl)piperidin-4-yl)ethyl)phenyl ethyl(methyl)carbamate] | 69.4 ± 9.4%
C#CCN1CCC(CCc2cccc(O)c2)CC1 [Compound 11, 3-(2-(1-(prop-2-yn-1-yl)piperidin-4-yl)ethyl)phenol] | 63.3 ± 0.4%
C#CCN1CCC(CCc2cccc(OC(=O)Nc3ccccc3)c2)CC1 [Compound 13, 3-(2-(1-(prop-2-yn-1-yl)piperidin-4-yl)ethyl)phenyl phenylcarbamate] | 54 ± 0.4%

Same assay, conditions: 15 min incubation at 37 °C; 3 independent experiments; read-out: IC50 ± SEM, hMAO-A

Structure (SMILES) | IC50
C#CCN1CCC(/C=C/c2ccc(O)cc2)CC1 [Compound 9, (E)-4-(2-(1-(prop-2-yn-1-yl)piperidin-4-yl)vinyl)phenol] | 15.5 ± 0.9 µM

Each molecule was assayed against T2, hMAO-B (assay: hMAO-B 100-fold dilution reversibility assay and IC50 shift at various pre-incubation times). Settings: 100-fold dilution assay.
Type: biochemical
Method: as §4
The reversibility was analyzed by one-way ANOVA and post-hoc comparisons were made using two-tailed Student’s t-test. p < 0.05—statistically significant. All data are means ± SEM (n = 2).
Figure 5 (A) A 100-fold dilution assay for hMAO-B inhibitors 12–14. L-Deprenyl was used as an irreversible inhibitor control; safinamide and isatin were used as reversible inhibitor controls. Data are mean values ± SEM (n = 2; each in quadruplicate): ∗, p < 0.05 (one-way ANOVA, with Bonferroni correction, followed by t-tests).

Structure (SMILES) | Reversibility of hMAO-B inhibition
C#CCN1CCC(CCc2ccc(OC(=O)N(C)CC)cc2)CC1 [Compound 14, 4-(2-(1-(prop-2-yn-1-yl)piperidin-4-yl)ethyl)phenyl ethyl(methyl)carbamate] | irreversible
C#CCN1CCC(CCc2cccc(OC(=O)Nc3ccccc3)c2)CC1 [Compound 13, 3-(2-(1-(prop-2-yn-1-yl)piperidin-4-yl)ethyl)phenyl phenylcarbamate] | reversible

Same assay, conditions: various pre-incubation times

Structure (SMILES) | Time-dependence of hMAO-B inhibition (IC50 shift)
C#CCN1CCC(CCc2ccc(OC(=O)N(C)CC)cc2)CC1 [Compound 14, 4-(2-(1-(prop-2-yn-1-yl)piperidin-4-yl)ethyl)phenyl ethyl(methyl)carbamate] | time-dependent hMAO-B inhibition
C#CCN1CCC(CCc2cccc(OC(=O)Nc3ccccc3)c2)CC1 [Compound 13, 3-(2-(1-(prop-2-yn-1-yl)piperidin-4-yl)ethyl)phenyl phenylcarbamate] | absence of IC50 shift; also recorded: did not exhibit time-dependent inhibition

These molecules were tested against T4, hAChE (Homo sapiens, UniProt P22303) (assay: Ellman method cholinesterase assay, hAChE). Settings: residual activity at 100 µM compound; 5-min pre-incubation; RA above 50% considered inactive; read-out: RA ± SD (%) at 100 µM, hAChE.
T4 construct: gift from Xavier Brazzolotto, Florian Nachon and José Dias (IRBA, Brétigny-sur-Orge, France)
T4 sequence (P22303 32-614): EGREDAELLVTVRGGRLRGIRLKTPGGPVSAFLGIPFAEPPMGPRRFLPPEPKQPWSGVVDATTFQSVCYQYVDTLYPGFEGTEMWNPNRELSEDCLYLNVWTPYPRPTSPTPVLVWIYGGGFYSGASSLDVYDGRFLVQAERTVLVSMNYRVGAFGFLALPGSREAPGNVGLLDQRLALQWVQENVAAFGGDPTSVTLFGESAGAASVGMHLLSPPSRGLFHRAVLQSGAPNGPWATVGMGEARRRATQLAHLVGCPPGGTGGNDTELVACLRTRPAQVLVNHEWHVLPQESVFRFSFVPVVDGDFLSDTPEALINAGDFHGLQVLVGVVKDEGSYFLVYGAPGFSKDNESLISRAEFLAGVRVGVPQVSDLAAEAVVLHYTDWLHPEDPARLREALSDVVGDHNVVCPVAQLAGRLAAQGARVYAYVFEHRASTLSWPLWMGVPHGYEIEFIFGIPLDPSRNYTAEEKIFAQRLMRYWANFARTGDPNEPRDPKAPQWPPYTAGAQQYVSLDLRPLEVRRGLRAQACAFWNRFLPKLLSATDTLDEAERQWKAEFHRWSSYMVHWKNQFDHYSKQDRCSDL
Type: biochemical
Method: as §2, §1

Structure (SMILES) | remaining activity at 100 µM
C#CCN1CCC(/C=C/c2ccc(O)cc2)CC1 [Compound 9, (E)-4-(2-(1-(prop-2-yn-1-yl)piperidin-4-yl)vinyl)phenol] | 65.9 ± 3.1%
C#CCN1CCC(CCc2ccc(OC(=O)N(C)CC)cc2)CC1 [Compound 14, 4-(2-(1-(prop-2-yn-1-yl)piperidin-4-yl)ethyl)phenyl ethyl(methyl)carbamate] | 66.1 ± 4.8%
C#CCN1CCC(CCc2cccc(OC(=O)N(C)CC)c2)CC1 [Compound 15, 3-(2-(1-(prop-2-yn-1-yl)piperidin-4-yl)ethyl)phenyl ethyl(methyl)carbamate] | 60.2 ± 1.8%
C#CCN1CCC(CCc2cccc(O)c2)CC1 [Compound 11, 3-(2-(1-(prop-2-yn-1-yl)piperidin-4-yl)ethyl)phenol] | 54.7 ± 2.9%
C#CCN1CCC(CCc2cccc(OC(=O)Nc3ccccc3)c2)CC1 [Compound 13, 3-(2-(1-(prop-2-yn-1-yl)piperidin-4-yl)ethyl)phenyl phenylcarbamate] | 51.9 ± 1.4%

Each molecule was assayed against T1, hBChE (assay: Ellman method cholinesterase assay, hBChE). Settings: 5-min pre-incubation; 3 independent experiments; read-out: IC50 ± SEM, hBChE.
Type: biochemical
Method: as §2, §1

Structure (SMILES) | IC50
C#CCN1CCC(CCc2ccc(OC(=O)N(C)CC)cc2)CC1 [Compound 14, 4-(2-(1-(prop-2-yn-1-yl)piperidin-4-yl)ethyl)phenyl ethyl(methyl)carbamate] | 75.5 ± 8.4 µM
C#CCN1CCC(CCc2cccc(OC(=O)N(C)CC)c2)CC1 [Compound 15, 3-(2-(1-(prop-2-yn-1-yl)piperidin-4-yl)ethyl)phenyl ethyl(methyl)carbamate] | 8.5 µM and 4.3 µM
C#CCN1CCC(CCc2cccc(OC(=O)Nc3ccccc3)c2)CC1 [Compound 13, 3-(2-(1-(prop-2-yn-1-yl)piperidin-4-yl)ethyl)phenyl phenylcarbamate] | 4.4 ± 0.8 µM

Same assay, conditions: residual activity at 100 µM compound; 5-min pre-incubation; RA above 50% considered inactive

Structure (SMILES) | RA ± SD (%) at 100 µM, hBChE
C#CCN1CCC(/C=C/c2ccc(O)cc2)CC1 [Compound 9, (E)-4-(2-(1-(prop-2-yn-1-yl)piperidin-4-yl)vinyl)phenol] | 64.9 ± 2.0%
C#CCN1CCC(CCc2cccc(O)c2)CC1 [Compound 11, 3-(2-(1-(prop-2-yn-1-yl)piperidin-4-yl)ethyl)phenol] | 72.9 ± 2.8%
